Results taken from PMC6327988 (Journal of Enzyme Inhibition and Medicinal Chemistry, 2019).

How the values were obtained:
[1] = biological target: BuChE (Homo sapiens, UniProt P06276); assay: BuChE inhibition, Ellman colorimetric method; assay type: biochemical; details: ratio of BuChE IC50 values
[2] = biological target: AChE (Homo sapiens, UniProt P22303); assay: AChE inhibition, Ellman colorimetric method; assay type: biochemical; details: ratio of AChE IC50 values
AChE, sequence (P22303 32-614): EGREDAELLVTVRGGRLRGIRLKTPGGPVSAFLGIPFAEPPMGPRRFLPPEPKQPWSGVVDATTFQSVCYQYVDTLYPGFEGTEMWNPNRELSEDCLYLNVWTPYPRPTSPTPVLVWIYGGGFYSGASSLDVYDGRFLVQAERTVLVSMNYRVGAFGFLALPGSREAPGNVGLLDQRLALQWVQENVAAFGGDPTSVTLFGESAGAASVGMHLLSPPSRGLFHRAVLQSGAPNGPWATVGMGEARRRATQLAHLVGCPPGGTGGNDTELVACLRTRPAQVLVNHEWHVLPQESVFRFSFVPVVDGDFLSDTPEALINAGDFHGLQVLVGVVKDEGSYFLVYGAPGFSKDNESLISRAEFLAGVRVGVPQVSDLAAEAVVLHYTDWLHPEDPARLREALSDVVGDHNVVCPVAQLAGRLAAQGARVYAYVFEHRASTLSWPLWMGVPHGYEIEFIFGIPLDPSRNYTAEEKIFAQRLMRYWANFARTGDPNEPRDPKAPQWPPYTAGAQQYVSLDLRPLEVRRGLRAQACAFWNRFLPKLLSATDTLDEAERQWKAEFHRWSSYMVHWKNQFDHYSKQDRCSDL

BuChE, sequence (P06276 29-602): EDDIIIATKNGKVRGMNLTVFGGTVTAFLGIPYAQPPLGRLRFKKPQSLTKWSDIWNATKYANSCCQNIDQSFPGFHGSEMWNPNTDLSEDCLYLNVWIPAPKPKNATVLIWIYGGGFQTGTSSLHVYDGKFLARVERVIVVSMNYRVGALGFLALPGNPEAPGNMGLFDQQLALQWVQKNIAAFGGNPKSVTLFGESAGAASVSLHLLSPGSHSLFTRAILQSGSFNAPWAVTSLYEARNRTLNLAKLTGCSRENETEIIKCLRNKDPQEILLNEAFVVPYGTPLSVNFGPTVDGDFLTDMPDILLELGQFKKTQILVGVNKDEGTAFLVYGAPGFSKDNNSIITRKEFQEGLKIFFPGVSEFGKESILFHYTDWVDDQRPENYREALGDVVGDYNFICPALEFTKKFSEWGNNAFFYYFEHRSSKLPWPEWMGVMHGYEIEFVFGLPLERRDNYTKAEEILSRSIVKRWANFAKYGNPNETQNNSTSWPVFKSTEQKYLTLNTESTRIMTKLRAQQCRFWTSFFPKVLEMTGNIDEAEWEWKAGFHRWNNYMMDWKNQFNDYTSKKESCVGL

O=c1[nH]cc(Br)c(=O)[nH]1 [Compound 3, 5-bromo-1H-pyrimidine-2,4-dione]
fold weaker BuChE inhibitor compared to uracil derivative 4 ([1]; vs 4): 2.13 fold

Cc1ccc(S(=O)(=O)n2cc(Br)c(=O)[nH]c2=O)cc1 [Compound 4, 5-Bromo-1-(toluene-4-sulfonyl)-1H-pyrimidine-2,4-dione]
fold better BuChE inhibitor compared to 5 ([1]; vs 5): 1.42 fold | fold less active compared to neostigmine (BuChE) ([1]; vs neostigmine): 1.63 fold | fold stronger AChE inhibitory profile compared to uracil 3 ([2]; vs 3): 1.71 fold | fold active compared to neostigmine (AChE) ([2]; vs neostigmine): 1.54 fold

CS(=O)(=O)n1cc(Br)c(=O)[nH]c1=O [Compound 5, 5-Bromo-1-methanesulfonyl-1H-pyrimidine-2,4-dione]
fold decrease of AChE inhibitory activity, mesylate vs toluene-4-sulfonyl group ([2]; 5 vs 4): 1.26 fold
